Laboratory results reported in PubChem BioAssay (NCI).
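96-well plates; 48 h exposure; 5 concentrations. Endpoints by linear interpolation between flanking doses. Not reached: highest tested concentration assigned. Abbreviation: GI50, concentration required for 50% inhibition of growth. Definition used: TGI = concentration required for complete inhibition of growth.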

How the values were obtained:
Assay in all cases: growth of human tumour cells (NCI), 48 h
[1] = test system: SNB-19 CNS
[2] = test system: A549 NSCLC
[3] = test system: OVCAR-4 ovarian
[4] = test system: MDA-MB-435
[5] = test system: EKVX NSCLC
[6] = test system: UACC-257 melanoma
[7] = test system: RPMI-8226 leukemia
[8] = test system: SNB-75 CNS
[9] = test system: A498 renal
[10] = test system: HCC-2998 colon
[11] = test system: SN12C renal
[12] = test system: SW-620 colon
[13] = test system: NCI-H460 lung
[14] = test system: OVCAR-3 ovarian
[15] = test system: OVCAR-8 ovarian
[16] = test system: HCT-15 colon
[17] = test system: NCI-H522 lung
[18] = test system: HOP-92 NSCLC
[19] = test system: SK-MEL-28 melanoma
[20] = test system: BT-549 breast
[21] = test system: NCI-H23 lung
[22] = test system: MDA-MB-468 breast
[23] = test system: COLO 205 colon
[24] = test system: RXF 393 renal
[25] = test system: CCRF-CEM leukemia
[26] = test system: OVCAR-5 ovarian
[27] = test system: HS 578T breast
[28] = test system: 786-0 renal
[29] = test system: MCF7 breast
[30] = test system: M14 melanoma
[31] = test system: UO-31 renal
[32] = test system: HL-60(TB) leukemia
[33] = test system: MOLT-4 leukemia
[34] = test system: PC-3 prostate
[35] = test system: T-47D breast
[36] = test system: SF-539 CNS
[37] = test system: DU-145 prostate
[38] = test system: TK-10 renal
[39] = test system: SK-MEL-2 melanoma
[40] = test system: IGROV1 ovarian
[41] = test system: MDA-MB-231 breast
[42] = test system: HOP-62 NSCLC
[43] = test system: CAKI-1 renal
[44] = test system: NCI-H226 lung
[45] = test system: U251 CNS
[46] = test system: SK-OV-3 ovarian
[47] = test system: SF-295 CNS
[48] = test system: HCT-116 colon
[49] = test system: SF-268 CNS
[50] = test system: K-562 leukemia
[51] = test system: HT29 colon
[52] = test system: MALME-3M melanoma
[53] = test system: ACHN renal
[54] = test system: KM12 colon
[55] = test system: SR leukemia
[56] = test system: SK-MEL-5 melanoma
[57] = test system: UACC-62 melanoma
[58] = test system: LOX IMVI melanoma

O=c1nc(-c2ccccc2)cc(-c2cc3ccccc3nc2Cl)[nH]1
GI50 [1]: 3.92 µM
TGI [1]: 15.8 µM
GI50 [2]: 11.6 µM
TGI [2]: 80.3 µM
GI50 [3]: 17.8 µM
TGI [3]: 61.4 µM
GI50 [4]: 6.96 µM
TGI [4]: 22.3 µM
GI50 [5]: 14.5 µM
TGI [5]: 36.8 µM
GI50 [6]: 17 µM
TGI [6]: 36.9 µM
GI50 [7]: 2.2 µM
TGI [7]: 7.19 µM
GI50 [8]: 3.82 µM
TGI [8]: 20.6 µM
GI50 [9]: 21.2 µM
TGI [9]: 43.5 µM
GI50 [10]: 16.9 µM
TGI [10]: 33.7 µM
GI50 [11]: 11.2 µM
TGI [11]: 23.9 µM
GI50 [12]: 1.93 µM
TGI [12]: 3.91 µM
GI50 [13]: 3 µM
TGI [13]: 10.3 µM
GI50 [14]: 3.38 µM
TGI [14]: 12.8 µM
GI50 [15]: 3.71 µM
TGI [15]: 18.6 µM
GI50 [16]: 2.12 µM
TGI [16]: 5.22 µM
GI50 [17]: 8.4 µM
TGI [17]: 22.3 µM
GI50 [18]: 4.21 µM
TGI [18]: 22.4 µM
GI50 [19]: 11.1 µM
TGI [19]: 23.3 µM
GI50 [20]: 2.61 µM
TGI [20]: 13.3 µM
GI50 [21]: 10.7 µM
TGI [21]: 39.6 µM
GI50 [22]: 4.24 µM
TGI [22]: 19.5 µM
GI50 [23]: 8.33 µM
TGI [23]: 25.4 µM
GI50 [24]: 11.1 µM
TGI [24]: 25.1 µM
GI50 [25]: 2.75 µM
TGI [25]: 9.32 µM
GI50 [26]: 12.2 µM
TGI [26]: 25.3 µM
GI50 [27]: 12.3 µM
TGI [27]: 60.2 µM
GI50 [28]: 3.39 µM
TGI [28]: 13.3 µM
GI50 [29]: 2.53 µM
TGI [29]: 14.8 µM
GI50 [30]: 12 µM
TGI [30]: 31.6 µM
GI50 [31]: 3.98 µM
TGI [31]: 18 µM
GI50 [32]: 2.27 µM
TGI [32]: 6.67 µM
GI50 [33]: 3.07 µM
TGI [33]: 12.4 µM
GI50 [34]: 6.11 µM
TGI [34]: 26.4 µM
GI50 [35]: 21.4 µM
TGI [35]: > 100 µM
GI50 [36]: 2.05 µM
TGI [36]: 5.1 µM
GI50 [37]: 7.23 µM
TGI [37]: 20.3 µM
GI50 [38]: 16.4 µM
TGI [38]: 41.5 µM
GI50 [39]: 17.1 µM
TGI [39]: 34 µM
GI50 [40]: 12.8 µM
TGI [40]: 27.9 µM
GI50 [41]: 6.12 µM
TGI [41]: 19.3 µM
GI50 [42]: 5.23 µM
TGI [42]: 20.6 µM
GI50 [43]: 10.1 µM
TGI [43]: 23 µM
GI50 [44]: 11.2 µM
TGI [44]: 28.1 µM
GI50 [45]: 1.62 µM
TGI [45]: 4.25 µM
GI50 [46]: 21.7 µM
TGI [46]: > 100 µM
GI50 [47]: 10.1 µM
TGI [47]: 24.1 µM
GI50 [48]: 1.89 µM
TGI [48]: 3.9 µM
GI50 [49]: 4.97 µM
TGI [49]: 18.6 µM
GI50 [50]: 2.71 µM
TGI [50]: 9.19 µM
GI50 [51]: 6.62 µM
TGI [51]: 24.8 µM
GI50 [52]: 12.4 µM
TGI [52]: 26.4 µM
GI50 [53]: 5.59 µM
TGI [53]: 18.2 µM
GI50 [54]: 1.96 µM
TGI [54]: 4.39 µM
GI50 [55]: 0.549 µM
TGI [55]: 4.86 µM
GI50 [56]: 17.6 µM
TGI [56]: 33.4 µM
GI50 [57]: 7.98 µM
TGI [57]: 20.9 µM

CC(=O)Nc1cccc(Nc2nc(NCc3ccccc3)c3ccccc3n2)c1
GI50 [1]: 2.49 µM
TGI [1]: 9.38 µM
GI50 [2]: 2.82 µM
TGI [2]: > 10 µM
GI50 [3]: 1.79 µM
TGI [3]: 3.66 µM
GI50 [4]: 1.7 µM
TGI [4]: 3.26 µM
GI50 [5]: 4.01 µM
TGI [5]: > 10 µM
GI50 [6]: 1.86 µM
TGI [6]: 3.74 µM
GI50 [7]: 3.24 µM
TGI [7]: > 10 µM
GI50 [8]: 1.42 µM
TGI [8]: 3.51 µM
GI50 [9]: > 10 µM
TGI [9]: > 10 µM
GI50 [10]: 1.68 µM
TGI [10]: 3.22 µM
GI50 [11]: > 10 µM
TGI [11]: > 10 µM
GI50 [12]: 1.83 µM
TGI [12]: 3.37 µM
GI50 [58]: 1.6 µM
TGI [58]: 2.98 µM
GI50 [13]: 1.68 µM
TGI [13]: 3.3 µM
GI50 [14]: 1.74 µM
TGI [14]: 3.3 µM
GI50 [15]: 2.25 µM
TGI [15]: 5.17 µM
GI50 [16]: 1.76 µM
TGI [16]: 3.45 µM
GI50 [17]: 1.68 µM
TGI [17]: 3.24 µM
GI50 [18]: 1.52 µM
TGI [18]: 7.85 µM
GI50 [19]: 1.61 µM
TGI [19]: 3.02 µM
GI50 [20]: > 10 µM
TGI [20]: > 10 µM
GI50 [21]: 2.5 µM
TGI [21]: 9.11 µM
GI50 [22]: 1.54 µM
TGI [22]: 3.01 µM
GI50 [23]: 1.9 µM
TGI [23]: 3.53 µM
GI50 [24]: 1.56 µM
TGI [24]: 3.22 µM
GI50 [25]: 2.81 µM
TGI [25]: 7.87 µM
GI50 [26]: 2.08 µM
TGI [26]: 5.67 µM
GI50 [27]: 2.16 µM
TGI [27]: 5.96 µM
GI50 [28]: 1.83 µM
TGI [28]: 3.87 µM
GI50 [29]: 1.61 µM
TGI [29]: 3.06 µM
GI50 [30]: 1.66 µM
TGI [30]: 3.11 µM
GI50 [31]: 1.73 µM
TGI [31]: 5.41 µM
GI50 [32]: 3.58 µM
TGI [32]: > 10 µM
GI50 [33]: 3.08 µM
TGI [33]: > 10 µM
GI50 [34]: 2.32 µM
TGI [34]: 8.15 µM
GI50 [35]: 1.65 µM
TGI [35]: 3.81 µM
GI50 [36]: 1.74 µM
TGI [36]: 3.15 µM
GI50 [37]: 5.41 µM
TGI [37]: > 10 µM
GI50 [38]: 3.12 µM
TGI [38]: > 10 µM
GI50 [39]: 3.41 µM
TGI [39]: > 10 µM
GI50 [40]: 3.15 µM
TGI [40]: > 10 µM
GI50 [41]: 1.69 µM
TGI [41]: 3.24 µM
GI50 [42]: 3.46 µM
TGI [42]: > 10 µM
GI50 [43]: 1.82 µM
TGI [43]: 4.4 µM
GI50 [44]: 1.69 µM
TGI [44]: 4.15 µM
GI50 [45]: 1.87 µM
TGI [45]: 3.93 µM
GI50 [46]: > 10 µM
TGI [46]: > 10 µM
GI50 [47]: 1.66 µM
TGI [47]: 3.05 µM
GI50 [48]: 1.66 µM
TGI [48]: 3.16 µM
GI50 [49]: > 10 µM
TGI [49]: > 10 µM
GI50 [50]: 3.25 µM
TGI [50]: > 10 µM
GI50 [51]: 1.84 µM
TGI [51]: 3.82 µM
GI50 [52]: 1.48 µM
TGI [52]: 2.81 µM
GI50 [53]: 1.77 µM
TGI [53]: 3.66 µM
GI50 [54]: 2.11 µM
TGI [54]: 4.91 µM
GI50 [55]: 4.05 µM
TGI [55]: > 10 µM
GI50 [56]: 1.47 µM
TGI [56]: 3.12 µM
GI50 [57]: 1.42 µM
TGI [57]: 2.74 µM
